Entries after “also recorded” stand apart in the source; their conditions may differ.
Tests used:
Assay type in all cases: cell-based, human
[1] = system: PC-3 cells; test: Migration wound closure assay; conditions: for migration / motility (wound healing): prostate cancer cells, concentration not given
Experimental: PC-3, DU145 and LNCaP cells were grown in six-well plates in the presence of 10% FBS. Once the cells formed a monolayer, near confluency a wound was done manually with a sterile […] pipette tip in the center of each well. Cells were treated with vehicle alone (DMSO) or 10 μM of compound IV and were grown in the presence of 2% FBS. After 18 hours, the migrating cells were photographed. The wound closure was quantified by measuring the distance between the two sides of the wound. The results represent an average of two independent experiments, each run in triplicates.
(§1) As reported previously, inhibition of Tiam-1 and subsequent inactivation of downstream signaling proteins leads to reduced actin cytoskeleton rearrangements resulting in decreased cell motility. […] FIG. 4, Panel A, A wound channel was introduced near-to-confluent non-treated or treated PC-3 cells with 10 μM V pKLO1 mock-transfection control cells, and shRNA cell line 1.2 (GS-1). […] FIG. 4, Panel B, PC-3 cells and Tiam-1 shRNA cell line 1.2 (shRNA 1.2) were treated as indicated, then stimulated with 20% FBS for 20 minutes to induce lamellipodia formation and stained with rhodamin phalloidin. Individual lamellipodia were counted in a minimum of 10 cells in each respective group and statistical analysis was performed using a Student's t-test. […] FIG. 4, Panel C, pKLO1 PC-3 cells, pKLO1 treated with 10 μM compound V and shRNA 1.2 cells were allowed to invade through Matrigel-coated transwell plates. Invading cells were stained after 12 hours and counted at 20× power (left side). […] In order to test our hypothesis, cells were stained with rhodamin phalloidin and then analyzed for actin/cytoskeleton formations, such as lamellipodia. […] Thus, the observed reduction in cellular motility in compound V treated cells and Tiam-1 silenced cells may be the result of f-actin disruption and reduced frequencies of lamellipodia formation. We next tested whether the compound of Formula V affected invasion of PC-3 through Matrigel-coated transwells.

[2] = system: PC-3 cells; test: Matrigel invasion assay; conditions: for invasion: prostate cancer cells, concentration not given
Experimental: PC-3 cells were pre-treated with DMSO vehicle control or with drug for 4 hours in T-25 flasks. Thereafter, 50,000 cells were then plated into the upper chamber that has been pre-coated with Matrigel (BD Sciences, San Jose, Ca) in the presence of drug or DMSO and serum-free media. The bottom well contained complete media including 10% FBS and 0.5% BSA as chemoattractants. After 24 hours, the upper chambers were removed, and any remaining cells within the insert were wiped with a cotton swab. Invading cells were then stained with 2% crystal violet in 20% methanol. Cells were then counted using a Zeiss stereomicroscope at 20× power. 10 random fields were counted. The results represent an average of two independent experiments, each run in triplicates.
as §1, with “We next tested whether the compound of Formula V affected invasion of PC-3 through Matrigel-coated transwells.” left out

[3] = system: PC-3 cells; test: Lamellipodia forming assay
Experimental: Glass coverslips were sterilized with 100% EtOH and placed in 6-well plates. PC-3 cells, pKLO.1, GS-1 and GS-2 cells were plated at 3000 cells/well and allowed to adhere overnight. Cells where then serum starved for 48 hours, then treated with the indicated drug for 12 hours, and stimulated with 20% FBS for 30 minutes. Coverslips were then removed from the plates, washed twice with cold PBS, and fixed with 3.7% paraformaldehyde solution in PBS for 10 minutes. Cells were then permeabilized using 0.1% Triton X-100 for 5 minutes. Cells were stained with rhodamine phalloidin (Invitrogen, Carlsbad, Calif.) for 20 minutes using the supplied protocol. Coverslips were then air-dried and mounted using ProLong Gold with DAPI (Invitrogen, Carlsbad, Calif.) and stored at 4° C. Cells were visualized at 40× using Olympus Bx-50 microscope with the CellSens imaging software. Individual lamellipodia were counted in a minimum of 10 cells in each respective group and statistical analysis was done using a Student's t-test.
As reported previously, inhibition of Tiam-1 and subsequent inactivation of downstream signaling proteins leads to reduced actin cytoskeleton rearrangements resulting in decreased cell motility. […] FIG. 4, Panel A, A wound channel was introduced near-to-confluent non-treated or treated PC-3 cells with 10 μM V pKLO1 mock-transfection control cells, and shRNA cell line 1.2 (GS-1). […] FIG. 4, Panel B, PC-3 cells and Tiam-1 shRNA cell line 1.2 (shRNA 1.2) were treated as indicated, then stimulated with 20% FBS for 20 minutes to induce lamellipodia formation and stained with rhodamin phalloidin. Individual lamellipodia were counted in a minimum of 10 cells in each respective group and statistical analysis was performed using a Student's t-test. […] Invading cells were stained after 12 hours and counted at 20× power (left side). […] In order to test our hypothesis, cells were stained with rhodamin phalloidin and then analyzed for actin/cytoskeleton formations, such as lamellipodia. […]

[4] = system: prostate cancer cells; test: Colony formation (FIG. 4, cell line not given)
Experimental: PC-3, LNCaP and DU145 cells were plated at 1000 cells/well into standard 6-well plates (3.5 cm) in the presence of complete media. The next day cells were drugged at increasing concentrations ranging from 1 to 50 μM in triplicate wells. Cells were viewed twice weekly to check for colony growth and confluence. Media and respective drugs were carefully replaced every three days. At day 12, media was aspirated and resulted colonies were stained with crystal violet (0.5% w/v) dissolved in ethanol for one minute, washed with water, and air dried as already described in reference. The resulting colonies were counted utilizing an Optronix Colony counter using ColCount software (Oxford Optronix Ltd, UK). The results represent an average of two independent experiments, each run in triplicates.

[5] = system: active Rac1 in PC-3 cells; test: Rac1 activation assay (GLISA); conditions: 1 μM, 4 hours, then 50 ng/ml hHGF for 2 minutes
Experimental: Rac1 activity was determined by the colorimetric GLISA Kit BK128 (Cytoskeleton, Inc, Denver, Co). Briefly, PC-3 (PC-3, pKLO.1, GS-1 and GS-2 cells), DU 145 and LNCap cells were grown to 75% confluence and then serum starved for 48 hours. Drugs were then added for 4 hours and cells were stimulated with 50 ng/ml hHGF (Gibco Life Sciences, Carlsbad, Ca) for 2 minutes. Cells were then lysed and harvested as described in the kit-supplied protocol. Protein concentration was normalized to 1.0 g/l. Plates were read in an absorbance spectrophotometer at 490 nm at 24° C. with 5 s medium orbital shaking. Data were analyzed as described in the supplied protocol. The results represent an average of three independent experiments, each run in duplicates.
A cellular screen of all hit compounds was conducted using the GLISA Rac1 activation kit. Briefly, PC-3 cells were drugged for 4 hours at 1 μM concentration with the selected compounds. Cells were then stimulated with 50 ng/ml of hHGF for 2 minutes. […] The isovolume of Tiam-1 PH domain (PDB 1FOE) was generated using GRID for the H-bond acceptor (−3.6 kcal/mol), the H-bond donor (−7.3 kcal/mol) and hydrophobic (−2.5 kcal/mol) probes. The critical residues are labeled around the isovolume surfaces. The dash lines represent hydrogen bonds between protein and inhibitors. […]

[6] = prostate cancer cells, concentration not given

Cc1ccc(-n2cc(-c3cccs3)nc2SCc2n[nH]c(=S)n2Cc2ccccc2)cc1 [compound V]
wound closure ([1]; PC-3 cells, 10 μM, after 18 hours): significant inability to close a wound | migration / motility (wound healing) [1]: inhibits; also recorded: reduce migration | invasion through Matrigel-coated transwells ([2]; PC-3 cells, 10 μM): significantly reduced amount of invading cells | invasion [2]: inhibits; also recorded: reduce invasion | lamellipodia formation ([3]; PC-3 cells, 10 μM, stimulation with 20% FBS): significantly reduced the frequency of lamellipodia formation | lamellipodia formation [3, 6]: inhibits; also recorded: reduce lamellipodia formation | colony formation [4]: inhibits | reduction of active Rac1 [5]: most pronounced and significant reduction of active Rac1

c1ccc(Cn2nnc3c(Sc4nnc(-c5ccncc5)o4)ncnc32)cc1 [VI]
migration / motility (wound healing) [1]: inhibits; also recorded: reduce migration | invasion [2]: inhibits; also recorded: reduce invasion | lamellipodia formation [3, 6]: inhibits; also recorded: reduce lamellipodia formation | colony formation [4]: inhibits | reduction of active Rac1 [5]: most pronounced and significant reduction of active Rac1

Reference: patent publication US10179142B2, “Treatment and/or prevention of bone metastasis” (The Arizona Board of Regents on behalf of The University of …, priority 2013, dated 2019)
